Type in all cases: functional
The subject of one assay is Aspergillus niger. Nature of the assay: Antimicrobial activity against Aspergillus niger ATCC 9029 by serial plate dilution method.
A further assay has as its system Candida albicans. Put plainly: Antimicrobial activity against Candida albicans ATCC 90028 by serial plate dilution method.
The test system of the next assay is Staphylococcus aureus. Nature of the assay: Antimicrobial activity against Staphylococcus aureus ATCC 25923 by serial plate dilution method.
The next assay deals with Escherichia coli. Nature of the assay: Antimicrobial activity against Escherichia coli ATCC 25922 by serial plate dilution method.

In brackets after ≈: the same amount, converted by molar mass.

This note sets out measurements from ChEMBL document CHEMBL3045407, “Synthesis and antimicrobial activity of pyrazolinones and pyrazoles having benzothiazole moiety” (2012).

Usually MIC stands for the lowest concentration that inhibits growth of the organism. Read a high MIC as weaker potency. On to `CC1=NN(c2nc3ccc(Cl)cc3s2)C(=O)/C1=N/Nc1ccccc1Cl`, for which the MIC stood at 248 µM (≈ 100 µg/mL) against Aspergillus niger, 248 µM (≈ 100 µg/mL) against Candida albicans, 62 µM (≈ 25.1 µg/mL) in the assay with Staphylococcus aureus and 124 µM (≈ 50.2 µg/mL) in the assay on Escherichia coli.

`Cc1nn(-c2nc3ccc(Cl)cc3s2)c(C)c1/N=N/c1ccccc1O`: the MIC is 522 µM (≈ 200 µg/mL) against Aspergillus niger, 261 µM (≈ 100 µg/mL) in the assay on Candida albicans, 522 µM (≈ 200 µg/mL) against Staphylococcus aureus and 522 µM (≈ 200 µg/mL) in the assay with Escherichia coli.

In the case of `Cc1ccccc1/N=N/c1c(C)nn(-c2nc3ccc(Cl)cc3s2)c1C`, the MIC with Aspergillus niger came to 525 µM (≈ 200 µg/mL); with Candida albicans it was 262 µM (≈ 100 µg/mL); in the assay with Staphylococcus aureus, 262 µM (≈ 100 µg/mL); against Escherichia coli, 262 µM (≈ 100 µg/mL).

With `Cc1nn(-c2nc3ccc(Cl)cc3s2)c(C)c1/N=N/c1ccc(C(=O)O)cc1`, the MIC against Aspergillus niger worked out at 243 µM (≈ 100 µg/mL); in the assay with Candida albicans, 243 µM (≈ 100 µg/mL); against Staphylococcus aureus it was 122 µM (≈ 50.1 µg/mL); in the assay on Escherichia coli, 243 µM (≈ 100 µg/mL).

Take `Cc1nn(-c2nc3ccc(Cl)cc3s2)c(C)c1/N=N/c1ccccc1Cl`: the MIC in the assay with Aspergillus niger came out at 125 µM (≈ 50.2 µg/mL); against Candida albicans it was 125 µM (≈ 50.2 µg/mL); with Staphylococcus aureus, 499 µM (≈ 201 µg/mL); against Escherichia coli, 249 µM (≈ 100 µg/mL).

Regarding `Cc1nn(-c2nc3ccc(Cl)cc3s2)c(C)c1/N=N/c1ccccc1C(=O)O`, the MIC is 122 µM (≈ 50.1 µg/mL) against Aspergillus niger, 243 µM (≈ 100 µg/mL) against Candida albicans, 122 µM (≈ 50.1 µg/mL) against Staphylococcus aureus and 487 µM (≈ 200 µg/mL) in the assay on Escherichia coli.

Regarding `Cc1nn(-c2nc3ccc(Cl)cc3s2)c(C)c1/N=N/c1ccc(Cl)cc1`, the MIC against Aspergillus niger is 31.2 µM (≈ 12.5 µg/mL); against Candida albicans, 249 µM (≈ 100 µg/mL); in the assay on Staphylococcus aureus it was 15.6 µM (≈ 6.27 µg/mL); against Escherichia coli, 125 µM (≈ 50.2 µg/mL).

For the compound `COc1ccc(/N=N/c2c(C)nn(-c3nc4ccc(Cl)cc4s3)c2C)cc1`, the MIC against Aspergillus niger was 504 µM (≈ 200 µg/mL); in the assay with Candida albicans, 63 µM (≈ 25.1 µg/mL); in the assay with Staphylococcus aureus, 252 µM (≈ 100 µg/mL); with Escherichia coli it was 252 µM (≈ 100 µg/mL).

With `CC1=NN(c2nc3ccc(Cl)cc3s2)C(=O)/C1=N/Nc1ccccc1O`, the MIC in the assay on Aspergillus niger turned out to be 519 µM (≈ 200 µg/mL); against Candida albicans, 260 µM (≈ 100 µg/mL); in the assay with Staphylococcus aureus, 130 µM (≈ 50.1 µg/mL); against Escherichia coli it was 260 µM (≈ 100 µg/mL).

Turning to `CC1=NN(c2nc3ccc(Cl)cc3s2)C(=O)/C1=N/Nc1ccc(F)cc1`, the MIC amounted to 129 µM (≈ 50.1 µg/mL) in the assay on Aspergillus niger, 64.6 µM (≈ 25 µg/mL) against Candida albicans, 32.3 µM (≈ 12.5 µg/mL) against Staphylococcus aureus and 129 µM (≈ 50.1 µg/mL) against Escherichia coli.

`CC1=NN(c2nc3ccc(Cl)cc3s2)C(=O)/C1=N/Nc1ccc(Br)cc1`: the MIC in the assay on Aspergillus niger came out at 223 µM (≈ 100 µg/mL); in the assay on Candida albicans, 112 µM (≈ 50.1 µg/mL); against Staphylococcus aureus, 13.9 µM (≈ 6.26 µg/mL); with Escherichia coli it was 112 µM (≈ 50.1 µg/mL).

Regarding `CC1=NN(c2nc3ccc(Cl)cc3s2)C(=O)/C1=N/Nc1ccc(Cl)cc1`, the MIC in the assay on Aspergillus niger stood at 124 µM (≈ 50.1 µg/mL); with Candida albicans it was 124 µM (≈ 50.1 µg/mL); against Staphylococcus aureus, 31 µM (≈ 12.5 µg/mL); against Escherichia coli it was 62 µM (≈ 25.1 µg/mL).

Take `Cc1ccc(/N=N/c2c(C)nn(-c3nc4ccc(Cl)cc4s3)c2C)cc1`: the MIC turned out to be 262 µM (≈ 100 µg/mL) in the assay with Aspergillus niger, 131 µM (≈ 50.1 µg/mL) against Candida albicans, 131 µM (≈ 50.1 µg/mL) with Staphylococcus aureus and 65.6 µM (≈ 25.1 µg/mL) against Escherichia coli.

For `Cc1nn(-c2nc3ccc(Cl)cc3s2)c(C)c1/N=N/c1ccc(Br)cc1`, the MIC against Aspergillus niger stood at 56 µM (≈ 25 µg/mL); in the assay on Candida albicans, 112 µM (≈ 50.1 µg/mL); against Staphylococcus aureus, 112 µM (≈ 50.1 µg/mL); in the assay with Escherichia coli, 112 µM (≈ 50.1 µg/mL).

On to `COc1ccc(N/N=C2/C(=O)N(c3nc4ccc(Cl)cc4s3)N=C2C)cc1`, for which the MIC amounted to 501 µM (≈ 200 µg/mL) against Aspergillus niger, 251 µM (≈ 100 µg/mL) against Candida albicans, 125 µM (≈ 50.1 µg/mL) against Staphylococcus aureus and 251 µM (≈ 100 µg/mL) with Escherichia coli.

`Cc1nn(-c2nc3ccc(Cl)cc3s2)c(C)c1/N=N/c1ccc(F)cc1`: the MIC in the assay with Aspergillus niger is 130 µM (≈ 50.1 µg/mL); against Candida albicans it was 260 µM (≈ 100 µg/mL); in the assay on Staphylococcus aureus, 64.9 µM (≈ 25.1 µg/mL); in the assay with Escherichia coli, 32.5 µM (≈ 12.5 µg/mL).

Consider `CC1=NN(c2nc3ccc(Cl)cc3s2)C(=O)/C1=N/Nc1ccccc1C`, for which the MIC in the assay with Aspergillus niger was 261 µM (≈ 100 µg/mL); in the assay on Candida albicans it was 522 µM (≈ 200 µg/mL); against Staphylococcus aureus, 131 µM (≈ 50.1 µg/mL); with Escherichia coli, 261 µM (≈ 100 µg/mL).

In the case of `CC1=NN(c2nc3ccc(Cl)cc3s2)C(=O)/C1=N/Nc1ccc(C)cc1`, the MIC in the assay on Aspergillus niger stood at 261 µM (≈ 100 µg/mL); in the assay on Candida albicans it was 522 µM (≈ 200 µg/mL); against Staphylococcus aureus it was 65.3 µM (≈ 25.1 µg/mL); in the assay with Escherichia coli it was 131 µM (≈ 50.1 µg/mL).

Take `CC1=NN(c2nc3ccc(Cl)cc3s2)C(=O)/C1=N/Nc1ccc(C(=O)O)cc1`: the MIC was found to be 484 µM (≈ 200 µg/mL) against Aspergillus niger, 242 µM (≈ 100 µg/mL) in the assay on Candida albicans, 121 µM (≈ 50.1 µg/mL) with Staphylococcus aureus and 242 µM (≈ 100 µg/mL) in the assay on Escherichia coli.

On to `NNc1nc2ccc(Cl)cc2s1`, for which the MIC against Aspergillus niger was found to be 1000 µM (≈ 200 µg/mL); against Candida albicans it was 501 µM (≈ 100 µg/mL); against Staphylococcus aureus, 250 µM (≈ 50 µg/mL); with Escherichia coli, 501 µM (≈ 100 µg/mL).

Regarding `CC1=NN(c2nc3ccc(Cl)cc3s2)C(=O)/C1=N/Nc1ccccc1C(=O)O`, the MIC against Aspergillus niger amounted to 484 µM (≈ 200 µg/mL); against Candida albicans, 121 µM (≈ 50.1 µg/mL); in the assay on Staphylococcus aureus it was 242 µM (≈ 100 µg/mL); in the assay with Escherichia coli it was 484 µM (≈ 200 µg/mL).

With `CC(=O)N1CCN(c2ccc(OCC3COC(Cn4ccnc4)(c4ccc(Cl)cc4Cl)O3)cc2)CC1` (stereo unspecified) [KETOCONAZOLE], the MIC in the assay on Aspergillus niger came out at 11.8 µM (≈ 6.25 µg/mL); in the assay on Candida albicans, 5.88 µM (≈ 3.12 µg/mL).
